The record followed here is article PMC8634879, “Design, Synthesis, and Biological Evaluation of Pyrano[2,3-c]-pyrazole–Based RalA Inhibitors Against Hepatocellular Carcinoma” (Frontiers in Chemistry, 2021).

One data set deals with T1, RalB (Homo sapiens, UniProt P11234).
T1 construct: expressed in transfected cells; host or cells: HepG2 (from b6; the methods paragraph names no cell line)
T1 sequence (P11234 1-203 limits assumed): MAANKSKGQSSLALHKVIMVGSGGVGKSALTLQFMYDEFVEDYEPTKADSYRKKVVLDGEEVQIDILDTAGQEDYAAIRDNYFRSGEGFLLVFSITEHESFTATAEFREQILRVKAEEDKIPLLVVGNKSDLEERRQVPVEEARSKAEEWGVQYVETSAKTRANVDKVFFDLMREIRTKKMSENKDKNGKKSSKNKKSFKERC
The experiment in a line: ELISA-based RalB activity assay (RalBP1-coated plates, lysates of compound-treated cells). Format: biochemical. Conditions: 1 μM compound; % control = active (RalBP1-bound) RalB remaining. As to the method: (§1) The in vitro RalA/B bioactivity assays were performed following methods outlined in previous reports. ([Yan et al., 2016]; [Zhang et al., 2018]; [Walsh et al., 2019]; [Bum-Erdene et al., 2020]). In brief, the lysates of the test compound or vehicle-treated cells were cleared using cold centrifugation, and supernatants were collected. An RalBP1 solution was added to 96-well plates and incubated for 1–2 h, and then the plates were washed thrice using ELISA buffer. Next, cellular lysates were added, and samples were incubated overnight at 4°C. Then, ice-cold mouse anti-FLAG antibody was added, and samples were incubated for one more hour. After subsequent washing with ELISA buffer thrice, the HRP-conjugated anti-mouse antibody was added, and samples were incubated for another hour. Then, the HRP substrate was added. Antigen–antibody reactions were quenched by the addition of sulfuric acid (2 mol/L). Remaining RalA/B was detected by the OD450 values which were collected by using a plate reader. Cell proliferation assays, colony formation assays, apoptosis assays, GST pulldown, and Western blotting were used following methods outlined in our previous reports. ([Zhou et al., 2015]; [Zhang et al., 2016]; [Yang et al., 2017]; [He et al., 2019]). Autophagy levels and protein immunoblotting were used following the methods mentioned in our previous reports ([Pan et al., 2018]; [Wang et al., 2018]; [Hao et al., 2019]; [Wang et al., 2019]; [Peng et al., 2020]). Detailed experimental procedures are described in supporting materials.
(In general: In an ELISA, binding on a coated surface is turned into a signal by an enzyme label.)

The next data set has as its system Huh-7 cells. Put plainly: Cell proliferation assay (MTT), Huh-7. Format: cell-based. Conditions: Homo sapiens, Table 1, cell proliferation inhibition, read-out: IC50 (μM) Huh7. As to the method: (§2) The antibodies recognizing LC3, p62/SQSTM1, RalA, RalB, and GAPDH were purchased from Proteintech (Wuhan, China). HCC cell lines, including HepG2, Hep3B, Huh-7, and SMMC-7721, were obtained from the Chinese Center for Type Culture Collection (Wuhan, China) and cultured in DMEM (Dulbecco’s modified Eagle’s medium) with 10% FBS (fetal bovine serum) and streptomycin. Cytotoxicity assays were performed by using the MTT method as previously described.
as §1

The target of the next data set is T2, RalA (Homo sapiens, UniProt P11233).
T2 construct: expressed in transfected cells; host or cells: HepG2 (from b6; the methods paragraph names no cell line)
T2 sequence (P11233 1-203 limits assumed): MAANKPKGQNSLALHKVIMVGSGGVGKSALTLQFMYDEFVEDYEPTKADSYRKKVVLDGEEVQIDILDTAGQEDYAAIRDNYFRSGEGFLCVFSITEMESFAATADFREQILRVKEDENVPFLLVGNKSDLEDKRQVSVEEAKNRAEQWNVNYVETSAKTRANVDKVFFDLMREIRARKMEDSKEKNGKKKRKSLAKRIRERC
The experiment in a line: ELISA-based RalA activity assay (RalBP1-coated plates, lysates of compound-treated cells). Format: biochemical. Conditions: 1 μM compound; % control = activity remained. As to the method: as §1

Another data set has as its system HepG2 cells. Put plainly: Cell proliferation assay (MTT), HepG2. Format: cell-based. As to conditions: Homo sapiens, HepG2, Table 1, cell proliferation inhibition; read-out: IC50 (μM) HepG2. As to the method:
as §2, §1

The structures appear in SMILES notation. Some results are limits rather than exact numbers.

As for `Cc1ccc(S(=O)(=O)NC2=C(C#N)C(c3cccnc3)c3c(C)nn(-c4ccccc4Cl)c3O2)cc1` (stereo not drawn) [4t, N-(1-(2-chlorophenyl)-5-cyano-3-methyl-4-(pyridin-3-yl)-1,4-dihydropyrano[2,3-c]-pyrazol-6-yl)-4-methylbenzenesulfonamide], the remaining activity at 1 µM on RalB was 65%; at RalA it was 46%. Besides, the IC50 with Huh-7 cells was greater than 10 µM; in the data set on HepG2 cells, 8.28 ± 0.89 µM.

On to `COc1cccc(C2C(C#N)=C(NS(=O)(=O)c3ccc([N+](=O)[O-])cc3)Oc3c2c(C)nn3-c2ccccc2Cl)c1` (stereo not drawn) [4ab, N-(1-(2-chlorophenyl)-5-cyano-4-(3-methoxyphenyl)-3-methyl-1,4-dihydropyrano[2,3-c]-pyrazol-6-yl)-4-nitrobenzenesulfonamide], for which the remaining activity at 1 µM on RalB was 65%; at RalA, 60%. Also, the IC50 with Huh-7 cells and in the data set on HepG2 cells was greater than 10 µM each time.

In turn, `Cc1ccc(S(=O)(=O)NC2=C(C#N)C(c3ccccc3)c3c(C)nn(-c4ccccc4Cl)c3O2)cc1` (stereo not drawn) [4ad, N-(1-(2-chlorophenyl)-5-cyano-3-methyl-4-phenyl-1,4-dihydropyrano[2,3-c]-pyrazol-6-yl)-4-methylbenzenesulfonamide] gave a melting point of 77.4 to 78 °C. For the same compound, at RalB, the remaining activity at 1 µM stood at 64%. Moreover, in the data set on Huh-7 cells, the IC50 is greater than 10 µM. Further, the remaining activity at 1 µM at RalA amounted to 52%. Besides, the IC50 in the data set on HepG2 cells was greater than 10 µM.

Take `Cc1ccc(S(=O)(=O)NC2=C(C#N)C(c3ccc(F)cc3)c3c(C)nn(-c4ccccc4)c3O2)cc1` (stereo not drawn) [4e, N-(5-cyano-4-(4-fluorophenyl)-3-methyl-1-phenyl-1,4-dihydropyrano[2,3-c]-pyrazol-6-yl)-4-methylbenzenesulfonamide]: the melting point fell in the range of 113 to 113.5 °C. At RalB, this compound had a remaining activity at 1 µM of 76%. In the data set with Huh-7 cells, the IC50 is greater than 10 µM. On RalA, the remaining activity at 1 µM turned out to be 74%. For the same compound, the IC50 in the data set on HepG2 cells is greater than 10 µM.

On to `Cc1ccc(S(=O)(=O)NC2=C(C#N)C(c3cccc(Cl)c3)c3c(C)nn(-c4ccccc4)c3O2)cc1` (stereo not drawn) [4c, N-(4-(3-chlorophenyl)-5-cyano-3-methyl-1-phenyl-1,4-dihydropyrano[2,3-c]-pyrazol-6-yl)-4-methylbenzenesulfonamide], for which the melting point was 68.4 to 69 °C. The remaining activity at 1 µM at RalB was found to be 69%. Also, in the data set with Huh-7 cells, the IC50 is greater than 10 µM. At RalA, this compound displayed a remaining activity at 1 µM of 40%. Further, the IC50 in the data set on HepG2 cells was found to be 7.28 ± 0.64 µM.

For `Cc1ccc(S(=O)(=O)NC2=C(C#N)C(c3ccc(Cl)c(Cl)c3)c3c(C)nn(-c4ccccc4)c3O2)cc1` (stereo not drawn) [4g, N-(5-cyano-4-(3,4-dichlorophenyl)-3-methyl-1-phenyl-1,4-dihydropyrano[2,3-c]-pyrazol-6-yl)-4-methylbenzenesulfonamide], the remaining activity at 1 µM on RalB is 58%; at RalA, 66%. The IC50 with Huh-7 cells and in the data set on HepG2 cells was greater than 10 µM each time.

On to `COc1cccc(C2C(C#N)=C(NS(=O)(=O)c3ccccc3)Oc3c2c(C)nn3-c2ccccc2Cl)c1` (stereo not drawn) [4x, N-(1-(2-chlorophenyl)-5-cyano-4-(3-methoxyphenyl)-3-methyl-1,4-dihydropyrano[2,3-c]-pyrazol-6-yl)benzenesulfonamide], for which the melting point is 66 to 67.5 °C. The same compound yielded a remaining activity at 1 µM on RalB of 58%. Moreover, in the data set with Huh-7 cells, the IC50 came to 8.93 ± 1.02 µM. This compound displayed a remaining activity at 1 µM on RalA of 59%. Also, in the data set with HepG2 cells, the IC50 is greater than 10 µM.

`Cc1ccc(S(=O)(=O)NC2=C(C#N)C(c3ccco3)c3c(C)nn(-c4ccccc4Cl)c3O2)cc1` (stereo not drawn) [4s, N-(1-(2-chlorophenyl)-5-cyano-4-(furan-2-yl)-3-methyl-1,4-dihydropyrano[2,3-c]-pyrazol-6-yl)-4-methylbenzenesulfonamide]: the melting point fell in the range of 62.5 to 63.9 °C. Moreover, the remaining activity at 1 µM on RalB came to 72%. For the same compound, the IC50 in the data set with Huh-7 cells was greater than 10 µM. Besides, the remaining activity at 1 µM on RalA was determined as 48%. Further, the IC50 in the data set with HepG2 cells was found to be 9.89 ± 0.81 µM.

Compound `Cc1ccc(S(=O)(=O)NC2=C(C#N)C(c3ccco3)c3c(C)nn(-c4ccccc4)c3O2)cc1` (stereo not drawn) [4j, N-(5-cyano-4-(furan-2-yl)-3-methyl-1-phenyl-1,4-dihydropyrano[2,3-c]-pyrazol-6-yl)-4-methylbenzenesulfonamide] showed a melting point of 153.8 to 154.3 °C. Moreover, on RalB, the remaining activity at 1 µM turned out to be 70%. Besides, in the data set on Huh-7 cells, the IC50 stood at 9.94 ± 1.23 µM. Also, on RalA, the remaining activity at 1 µM is 57%. Also, the IC50 in the data set on HepG2 cells was determined as 9.57 ± 1.05 µM.

`COc1cccc(C2C(C#N)=C(NS(=O)(=O)c3ccc(C)cc3)Oc3c2c(C)nn3-c2ccccc2Cl)c1` (stereo not drawn) [4w, N-(1-(2-chlorophenyl)-5-cyano-4-(3-methoxyphenyl)-3-methyl-1,4-dihydropyrano[2,3-c]-pyrazol-6-yl)-4-methylbenzenesulfonamide] showed a melting point of 66.4 to 67.7 °C. On RalB, this compound showed a remaining activity at 1 µM of 69%. For the same compound, the IC50 in the data set with Huh-7 cells was greater than 10 µM. At RalA, the remaining activity at 1 µM was found to be 51%. In addition, in the data set on HepG2 cells, the IC50 came to 8.87 ± 0.95 µM.

`Cc1ccc(S(=O)(=O)NC2=C(C#N)C(c3ccsc3)c3c(C)nn(-c4ccccc4Cl)c3O2)cc1` (stereo not drawn) [4v, N-(1-(2-chlorophenyl)-5-cyano-3-methyl-4-(thiophen-3-yl)-1,4-dihydropyrano[2,3-c]-pyrazol-6-yl)-4-methylbenzenesulfonamide] returned a melting point of 67.4 to 68.8 °C. This compound also had a remaining activity at 1 µM on RalB of 78%. For the same compound, the IC50 in the data set with Huh-7 cells is greater than 10 µM. In addition, on RalA, the remaining activity at 1 µM turned out to be 56%. Further, the IC50 with HepG2 cells was greater than 10 µM.

`Cc1ccc(S(=O)(=O)NC2=C(C#N)C(c3ccc(Br)cc3)c3c(C)nn(-c4ccccc4)c3O2)cc1` (stereo not drawn) [4d, N-(4-(4-bromophenyl)-5-cyano-3-methyl-1-phenyl-1,4-dihydropyrano[2,3-c]-pyrazol-6-yl)-4-methylbenzenesulfonamide]: the melting point lay within 101.6 to 102.3 °C. Further, on RalB, the remaining activity at 1 µM came to 89%. In addition, the IC50 in the data set with Huh-7 cells was greater than 10 µM. The remaining activity at 1 µM at RalA came out at 77%. Moreover, the IC50 with HepG2 cells was greater than 10 µM.

For the compound `COc1cccc(C2C(C#N)=C(NS(=O)(=O)c3cccc([N+](=O)[O-])c3)Oc3c2c(C)nn3-c2ccccc2Cl)c1` (stereo not drawn) [4aa, N-(1-(2-chlorophenyl)-5-cyano-4-(3-methoxyphenyl)-3-methyl-1,4-dihydropyrano[2,3-c]-pyrazol-6-yl)-3-nitrobenzenesulfonamide], the values for the remaining activity at 1 µM on RalB and at RalA were 73% and 72%, respectively. Further, the IC50 in the data set on Huh-7 cells and with HepG2 cells was greater than 10 µM in each case.

`COc1ccc(S(=O)(=O)NC2=C(C#N)C(c3cccc(OC)c3)c3c(C)nn(-c4ccccc4Cl)c3O2)cc1` (stereo not drawn) [4y, N-(1-(2-chlorophenyl)-5-cyano-4-(3-methoxyphenyl)-3-methyl-1,4-dihydropyrano[2,3-c]-pyrazol-6-yl)-4-methoxybenzenesulfonamide]: the remaining activity at 1 µM on RalB is 73%; on RalA it was 54%. For the same compound, the IC50 in the data set on Huh-7 cells and in the data set with HepG2 cells was greater than 10 µM in each case.

On to `COc1cccc(C2C(C#N)=C(NS(=O)(=O)c3ccccc3[N+](=O)[O-])Oc3c2c(C)nn3-c2ccccc2Cl)c1` (stereo not drawn) [4z, N-(1-(2-chlorophenyl)-5-cyano-4-(3-methoxyphenyl)-3-methyl-1,4-dihydropyrano[2,3-c]-pyrazol-6-yl)-2-nitrobenzenesulfonamide], for which the figures for the remaining activity at 1 µM at RalB and at RalA were 60% and 53%, respectively. Further, the IC50 in the data set with Huh-7 cells and with HepG2 cells was greater than 10 µM throughout.

For orientation: remaining activity means the signal under treatment as a percentage of the control signal. A low value points to a large loss of activity. Broadly, the IC50 is the concentration that inhibits the measured activity by half. By melting point is commonly meant the temperature, or range, at which the solid turns liquid.
